Reference: the NIST ThermoML archive (doi:10.1021/acs.jced.6b00536)

Test: xn = mol fraction of the nth substance listed
Settings: Gas, Frequency=0.05 MHz, Single path-length method, x2 = 0.058

FC(F)(F)C(F)(F)C(F)(F)F [octafluoropropane] + N#N
Settings	speed of sound [m/s]
293.32 K, 0.09882 kPa	117.97
293.32 K, 0.119 kPa	117.53
293.32 K, 0.1196 kPa	117.53
293.32 K, 0.139 kPa	117.08
293.32 K, 0.1393 kPa	117.06
293.32 K, 0.1596 kPa	116.59
293.32 K, 0.1599 kPa	116.61
293.32 K, 0.1779 kPa	116.19
293.32 K, 0.1782 kPa	116.19
293.32 K, 0.1958 kPa	115.78
293.32 K, 0.1967 kPa	115.77
293.32 K, 0.207 kPa	115.54
293.32 K, 0.2174 kPa	115.26
293.32 K, 0.218 kPa	115.26
293.32 K, 0.2185 kPa	115.27
293.32 K, 0.2573 kPa	114.33
293.32 K, 0.2766 kPa	113.86
293.32 K, 0.2771 kPa	113.88
293.32 K, 0.2946 kPa	113.41
293.32 K, 0.2954 kPa	113.39
293.32 K, 0.3175 kPa	112.86
293.32 K, 0.3315 kPa	112.52
298.38 K, 0.1005 kPa	119.04
298.38 K, 0.121 kPa	118.61
298.38 K, 0.1413 kPa	118.17
298.38 K, 0.1627 kPa	117.7
298.38 K, 0.1814 kPa	117.31
298.38 K, 0.2001 kPa	116.91
298.38 K, 0.2106 kPa	116.69
298.38 K, 0.2213 kPa	116.42
298.38 K, 0.222 kPa	116.42
298.38 K, 0.262 kPa	115.52
298.38 K, 0.282 kPa	115.07
298.38 K, 0.3011 kPa	114.61
298.38 K, 0.3239 kPa	114.1
298.38 K, 0.338 kPa	113.78
303.42 K, 0.1021 kPa	120.1
303.42 K, 0.1231 kPa	119.68
303.42 K, 0.1437 kPa	119.25
303.42 K, 0.1656 kPa	118.81
303.42 K, 0.1845 kPa	118.41
303.42 K, 0.2036 kPa	118.03
303.42 K, 0.2142 kPa	117.81
303.42 K, 0.2253 kPa	117.56
303.42 K, 0.2258 kPa	117.55
303.42 K, 0.2668 kPa	116.7
303.42 K, 0.2873 kPa	116.26
303.42 K, 0.3067 kPa	115.81
303.42 K, 0.3302 kPa	115.32
303.42 K, 0.3443 kPa	114.98
308.47 K, 0.1038 kPa	121.14
308.47 K, 0.1251 kPa	120.73
308.47 K, 0.146 kPa	120.32
308.47 K, 0.1683 kPa	119.89
308.47 K, 0.1877 kPa	119.52
308.47 K, 0.207 kPa	119.14
308.47 K, 0.2178 kPa	118.93
308.47 K, 0.2293 kPa	118.7
308.47 K, 0.2297 kPa	118.68
308.47 K, 0.2717 kPa	117.84
308.47 K, 0.2924 kPa	117.42
308.47 K, 0.3124 kPa	116.99
308.47 K, 0.3365 kPa	116.51
308.47 K, 0.3509 kPa	116.21
313.51 K, 0.1052 kPa	122.18
313.51 K, 0.1271 kPa	121.79
313.51 K, 0.1483 kPa	121.39
313.51 K, 0.171 kPa	120.97
313.51 K, 0.1907 kPa	120.6
313.51 K, 0.2105 kPa	120.24
313.51 K, 0.2214 kPa	120.03
313.51 K, 0.2331 kPa	119.78
313.51 K, 0.2338 kPa	119.8
313.51 K, 0.2763 kPa	118.97
313.51 K, 0.2975 kPa	118.58
313.51 K, 0.318 kPa	118.15
313.51 K, 0.3428 kPa	117.7
313.51 K, 0.3574 kPa	117.4
318.52 K, 0.1068 kPa	123.2
318.52 K, 0.1291 kPa	122.82
318.52 K, 0.1506 kPa	122.42
318.52 K, 0.1737 kPa	122.03
318.52 K, 0.1939 kPa	121.67
318.52 K, 0.2139 kPa	121.32
318.52 K, 0.2251 kPa	121.12
318.52 K, 0.2374 kPa	120.89
318.52 K, 0.2377 kPa	120.89
318.52 K, 0.2812 kPa	120.11
318.52 K, 0.3027 kPa	119.71
318.52 K, 0.3235 kPa	119.3
318.52 K, 0.349 kPa	118.86
318.52 K, 0.3638 kPa	118.57
323.53 K, 0.1085 kPa	124.22
323.53 K, 0.1312 kPa	123.85
323.53 K, 0.1531 kPa	123.46
323.53 K, 0.1766 kPa	123.09
323.53 K, 0.197 kPa	122.74
323.53 K, 0.2175 kPa	122.4
323.53 K, 0.2288 kPa	122.2
323.53 K, 0.2413 kPa	121.97
323.53 K, 0.2416 kPa	121.98
323.53 K, 0.2859 kPa	121.21
323.53 K, 0.308 kPa	120.83
323.53 K, 0.3293 kPa	120.45
323.53 K, 0.3551 kPa	120.01
323.53 K, 0.3704 kPa	119.72
